# Reference: US20230027495A1, “METHODS OF TREATING CANCER WITH A COMBINATION OF AN ANTI-PD-1 ANTIBODY AND AN ANTI-TISSUE FACTOR ANTIBODY-DRUG CONJUGATE” (Genmab A/S, priority 2019, published 2023)
# “Also recorded” adds a separate entry of the source. Non-standard residues stand in square brackets, D forms with d. Residues, ends and D or L forms follow the SMILES beside them. *: point of attachment. Dolaproine = CO[C@@H]([C@@H]1CCCN1)[C@@H](C)C(=O)O; Dil = CC[C@H](C)[C@H](NC)[C@@H](CC(=O)O)OC; X1 = C[C@@H](N*)[C@@H](O)c1ccccc1; NMeV = CN[C@H](C(=O)O)C(C)C
# How the values were obtained:
# [1] = system: human peripheral blood mononuclear cells (PBMCs); assay: Monocyte/macrophage activation in human PBMCs fed drug-killed MDA-MB-231 cells; format: cell-based
# Text: FIGS. 7A and 7B is a series of graphs in which Tissue Factor positive MDA-MB-231 cells killed with various agents were fed to human peripheral blood mononuclear cells (PBMCs) and immune activation assessed by increased expression of activations markers on innate CD14+ monocyte/macrophages and induction of chemokine and cytokine production.
# Immunogenic cell death, as mediated by MMAE, is regulated cell death that activates adaptive immune responses against antigens from dead and dying tumor cells, and allows for the generation of robust innate immune cell activation and subsequent cytotoxic T cell responses targeted towards specific tumor cell antigens. […] Furthermore, these monocyte/macrophages conditioned by ICD-killed cells promote activation of T cells, as evidenced by production of signature inflammatory cytokines associated with cytotoxic T cell responses.
# [2] = system: human peripheral blood mononuclear cells (PBMCs); assay: T cell activation in CSFE labeled human PBMCs fed drug-killed MDA-MB-231 cells, with or without pembrolizumab; format: cell-based
# Text: Induction of the innate immune response following exposure to cancer cells undergoing ICD sets up secondary T cell activation, which can be enhanced by concomitant pembrolizumab treatment.
# [3] = system: murine tumor cells that stably express human TF; assay: Immunization of Balb/c mice with drug-killed human TF positive murine tumor cells, then tumor challenge (syngeneic model); format: in vivo; conditions: mice immunized with drug-killed human TF positive tumor cells
# Experimental: Mouse tumor cells are transfected with plasmid constructs encoding human tissue factor (TF) and sgRNA-guided Cas9 nuclease (sgRNA/Cas9) to generate a murine cell line that expresses the human TF. Fluorescence activated cell sorting (FACS) yields a clonal population of murine tumor cells that stably express human TF, these cells are then treated with 1 μg to 5 μg per ml of tisotumab vedotin or 100 nM of MMAE for 4 days. In order to prepare dying cells for immunization, treated murine tumor cells are overlaid atop Histopaque, and centrifuged at 2000 g for 30 minutes. Dead and dying cells are pelleted underneath the Histopaque layer, and viability assessed by trypan blue exclusion. A sample with approximately <20% live cells as measured by trypan blue exclusion is obtained. Flash-frozen tumor cells are prepared by submerging the cells in liquid nitrogen for 10 seconds, followed by immersion in 37° C. water until completely thawed. The liquid nitrogen freeze-thaw process is repeated 5 times. Dead and dying human TF positive tumor cells are resuspended in phosphate buffered saline (PBS) and 2×10^6 cells are injected into the peritoneum of immune-competent Balb/c mice. Seven days later, mice receive a second immunization with dead and dying cells prepared in the same manner.
# Fourteen days after initial immunization with the dead and dying human TF positive tumor cells, mice are subcutaneously implanted with 5×10^6 wild-type tumor cells and monitored for tumor growth. […] As these effects occur in the absence of any administered therapeutic agent, the administration of cells killed by tisotumab vedotin or MMAE is sufficient to generate long-lasting protective immune memory against subsequent tumor cell challenge. Protective immune memory is amplified by treating these mice with tisotumab vedotin in combination with an antibody that binds to murine PD-1.
# [4] = system: HPAFII (pancreatic carcinoma) and MDA-MB-231 (breast carcinoma) cells; assay: Western blot of ER stress pathways in HPAFII and MDA-MB-231 cells; format: cell-based
# Experimental: Induction of cell death and release of ICD danger signals occurs concomitant with initiation of an ER stress response. Two Tissue Factor positive cell lines, HPAFII (pancreatic carcinoma) and MDA-MB-231 (breast cell carcinoma) were exposed to tisotumab vedotin ADC, an Isotype-MMAE ADC (H00-MMAE, IgG1 MMAE), or free MMAE for 18 hours and induction of ER stress monitored by western blot analysis. Phosphorylation of inositol-requiring transmembrane kinase/endonuclease 1 (IRE1) was detected after treatment with tisotumab vedotin ADC or MMAE free drug (FIG. 6). […] The ability for auristatins to prime the immune system to recognize tumor antigens opens the door for a myriad of combinatorial therapeutic options.
# HeLa cells [5] = assay: Western blot of ER stress (IRE1 and JNK phosphorylation) in MMAE-treated HeLa cells; format: cell-based; conditions: 100 nM MMAE, 16 hours
# Experimental: HeLa cells, a cervical cancer cell line, were cultured in Minimum Essential Medium (MEM) with 10% FBS, 10 mM HEPES, 1 mM sodium pyruvate, 2 mM L-glutamine, penicillin (100U/ml), and streptomycin (100 μg/ml). HeLa cells were treated with 100 nM MMAE for 16 hours and harvested in radioimmunoprecipitation assay buffer (RIPA) buffer for western blot analysis. Treatment with MMAE led to phosphorylation of the serine threonine kinase IRE1, indicating activation of ER stress. Severe ER stress is a prerequisite to the exposure of pro-phagocytic signals on the surface of tumor cells, and can be indicated by activation of JNK signaling by phosphorylated IRE1.
# HeLa cells [6] = assay: Imaging of RFP-tubulin microtubule network and ER in HeLa cells in the presence of MMAE; format: cell-based; conditions: 100 nM MMAE
# Experimental: HeLa cells were transduced with a baculovirus encoding RFP-labeled Tubulin (CellLight Tubulin-RFP, ThermoFisher Scientific) and an ER-binding dye (ER-ID Green, Enzo Life Sciences). Cells were treated with 100 nM MMAE and imaged over time in the present of MMAE. Within 2 hours, fragmentation and disassembly of the microtubule network became evident, concurrent with the breakdown of the perinuclear organized ER lattice (FIGS. 2A and 2B). The condensed and mislocalized ER skeleton indicated severe ER stress within 8 hours.
# HeLa cells [7] = assay: ATP and HMGB1 secretion from MMAE-treated HeLa cells; format: cell-based; conditions: 100 nM MMAE, over 24 hours, vs untreated cells
# Text: Induction of ICD is also characterized by the secretion of ATP and HMGB1. Extracellular ATP serves as a strong chemotactic signal, promoting immune cell migration to the tumor site. Upon arrival, extracellular HMGB1 signals through various pro-inflammatory receptors (TLR2, TLR4, RAGE) to activate antigen-presenting cells, thereby promoting immune activity within the tumor.
# [8] = system: Tissue Factor positive cell lines; assay: Cell death and ATP/HMGB1 release from Tissue Factor positive cell lines; format: cell-based; conditions: Tissue Factor positive cells
# Text: Auristatin ADC payloads disrupt the microtubule networks resulting in altered ER localization and function, which ultimately results in ER stress.
# cervical cancer = conditions: cited from earlier work
# MDA-MB-231 xenograft = MDA-MB-231 xenograft model in humanized NSG mice; format: in vivo; conditions: pembrolizumab alone, first dose 10 mg/kg, then 5 mg/kg every five days, IP
# Experimental: The in vivo anti-tumor efficacy of tisotumab vedotin in combination with an anti-PD-1 monoclonal antibody was evaluated in NOD.Cg-PrkdC^scid Il2rg^tm1Wj1/SzJ (NSG) immunodeficient mice (The Jackson Laboratory, Stock No. 005557), humanized by engraftment with human CD34^+ hematopoietic stem cells (Jackson Laboratories, Sacramento). Mice were subcutaneously inoculated with 5×10^6 MDA-MB-231 cells (breast adenocarcinoma; American Tissue Culture Collection (ATCC), cat. no. HTB-26), in 100 μL phosphate-buffered saline (PBS). Before inoculation, cells were cultured in DMEM with high glucose and HEPES without L-glutamine (Lonza, cat. no. BE12-709F), 10% (v/v) donor bovine serum with iron New Zealand Origin (Thermo Fisher Scientific, DBSI, cat. no. 10371-029), 2 mM L-glutamine (Lonza, cat. no. BE17-605E), 1 mM Na-pyruvate (Lonza, cat. no. BE13-115E), MEM non-essential amino acids (Life Technologies, cat. no. 11140) and 1% (v/v) penicillin/streptomycin (Lonza, cat. no. DE17-603E), in CellSTACK culture chambers (Corning, cat. no. 3313).
# Tumor size was determined by caliper measurement at least two times a week and tumor volume was calculated as 0.52×length×width^2. When tumors reached the size of 100 mm^3 mice were randomized in 7 groups (8 mice per treatment group) based on mouse cohort and tumor size (Table 1). Mice were treated with tisotumab vedotin alone (1 mg/kg or 0.5 mg/kg), intravenously, weekly for a maximum of five treatments, or in combination with an anti-PD-1 antibody (i.e., pembrolizumab, KEYTRUDA®, 50 mg concentrate, Merck & Co., Inc., Kenilworth, N.J. USA) or with anti-PD-1 antibody alone. The first dose of the anti-PD-1 antibody (i.e., pembrolizumab) was 10 mg/kg, followed by 5 mg/kg every five days for a maximum of six treatments. Mice in control groups were administered 1 mg/kg of IgG1 isotype control antibody or IgG1 isotype control antibody conjugated to MMAE intravenously, weekly for a maximum of five treatments (Table 1). The IgG1 isotype control antibody is the b12 antibody which is known to bind to HIV-1 gp120. […]
# [9] = managed with interruptions of pembrolizumab, corticosteroids and/or other supportive care; cited from earlier work
# [10] = PBMCs fed drug-exposed MDA-MB-231 cells, 48 hours
# [11] = HPAFII and MDA-MB-231 cells, 18 hours
compound,measurement,setting,value
"CC[C@H](C)[C@@H]([C@@H](CC(=O)N1CCC[C@H]1[C@H](OC)[C@@H](C)C(=O)N[C@H](C)[C@@H](O)c1ccccc1)OC)N(C)C(=O)[C@@H](NC(=O)[C@@H](NC)C(C)C)C(C)C [MMAE, Monomethyl auristatin E, reference compound] (H-[NMeV]V[Dil][Dolaproine]-X1)",monocyte/macrophage activation by CD86 expression,"[1]; CD14+ monocyte/macrophages, flow cytometry, PBMCs fed killed MDA-MB-231 cells, compared to IgG1-MMAE ADC or tisotumab alone",drove monocyte/macrophage activations
same,release of innate chemokines,"[1]; PBMCs fed killed MDA-MB-231 cells, compared to IgG1-MMAE ADC or tisotumab alone",induced release of innate chemokines including MIP10
same,chemotactic and inflammatory mediators from monocyte/macrophages,[1]; after uptake of killed Tissue Factor positive cells,elicit strong chemotactic and inflammatory mediators
same,T cell proliferation (CSFE dilution),[2]; [10],drove T cell proliferation
same,production of IFNγ,[2]; [10],increased; also recorded: production of T cell specific cytokines
same,production of IL12p70,[2]; [10],increased; also recorded: production of T cell specific cytokines
same,survival after challenge with wild-type tumor cells,[3],increased survival
same,tumor growth after challenge with wild-type tumor cells,[3],delayed tumor growth
same,activation of JNK (phosphorylation),[4]; [11],increased phosphorylation
same,activation of PERK pathway (ATF4 cleavage),[4]; [11],upregulation of ATF4 cleavage
same,phosphorylation of IRE1,[4]; [11],detected
same,"activation of ER stress pathways (phosphorylation of IRE and JNK, cleavage of ATF4)","[4]; HPAFII or MDA-MB-231 cells, 16 hours",trigger multiple ER stress pathways
same,phosphorylation of IRE1 and JNK (ER stress),HeLa cells [5],led to phosphorylation of both IRE1 and JNK; also recorded: elicited severe ER stress by phosphorylation of IRE1 and JNK
same,microtubule network and ER localization,HeLa cells [6],led to disassembly of the microtubule network and subsequent ER mislocalization
same,time to fragmentation and disassembly of the microtubule network and breakdown of the ER lattice,HeLa cells [6],≤ 2 h
same,time to severe ER stress (condensed and mislocalized ER skeleton),HeLa cells [6],≤ 8 h
same,secretion of ATP,HeLa cells [7],increased secretion
same,secretion of HMGB1,HeLa cells [7],increased secretion
same,ATP secretion/release,[8],drove robust A) ATP secretion; also recorded: specific to tisotumab vedotin ADC and MMAE treatment
same,HMGB1 release,[8],HMGB1 release; also recorded: specific to tisotumab vedotin ADC and MMAE treatment
"pembrolizumab: anti-PD-1 monoclonal antibody, checkpoint inhibitor, also known as KEYTRUDA® [reference compound]","T cell proliferation driven by tisotumab vedotin or MMAE killed cells, effect of added pembrolizumab","[2]; 2 mg/ml of pembrolizumab, 48 hours",enhanced
same,"cytokine production after tisotumab vedotin or MMAE killed cells, effect of concomitant pembrolizumab","[2]; IL12p70 and IFNγ, 48 hours",increased
same,"secondary T cell responses after tisotumab vedotin induced ICD, effect of pembrolizumab",[2]; concomitant pembrolizumab treatment,can be amplified
same,objective response rate,"cervical cancer; 200 mg Q3W, 82 patients with previously treated, advanced cervical cancer",12%
same,objective response rate (ORR),"cervical cancer; 2L+ PD-L1-positive recurrent or metastatic cervical cancer, 42% previously treated with bevacizumab",14%
same,tumor burden as assessed by tumor volume,MDA-MB-231 xenograft,hardly reduced tumor burden
same,reversibility of immune-related AEs (irAEs),[9],most irAEs were reversible
